The nature of data set [1]: Cytotoxicity of test compound to Vero host cells (minimum toxic concentration). Conditions: monkey, MTC (minimum toxic concentration), footnote: lowest concentration giving 50% reduction in percent survival of viable host cells.
The subject of another data set is vaccinia virus. In words: microbe, parasite or virus in culture. To be noted: for IC50: Orthopoxvirus vaccinia, Vero, read-out: ID50 (inhibitory dose 50; 50% reduction in virus replication), vaccinia virus in Vero cells, called MIC50; for TI (therapeutic index, MTC/ID50) / Virus Rating (VR): Vero cells; for TI (therapeutic index, MTC/ID50): TI>50 indicates a useful compound; for Virus Rating (VR): VR >=1.0 significant, 0.5-0.9 marginal, <0.5 inactive, repeat lines are repeat tests. The format is cell-based.

Several values for one entry are separate records, joined by “and”; a condition that tells them apart may be missing. Equal values may be shown once.

In data set [1], `N=c1c2ncn([C@@H]3O[C@H](CO)[C@@H](O)[C@H]3O)c2ncn1OCc1ccccc1C(F)(F)F.[O-][Cl+3]([O-])([O-])O` [Compound 2l, 1-(2-Trifluoromethylbenzyloxy)adenosine, perchloric acid salt] had an MCC greater than 320 µg/mL. Further, in the data set with vaccinia virus, the IC50 was found to be 0.82 µg/mL; the “TI (therapeutic index, MTC/ID50)” value was determined as 391; the “Virus Rating (VR)” value is greater than 2.2.

In data set [1], `N=c1c2ncn([C@@H]3O[C@H](CO)[C@@H](O)[C@H]3O)c2ncn1OCc1cc(C(F)(F)F)cc(C(F)(F)F)c1.[O-][Cl+3]([O-])([O-])O` [Compound 2m, 1-[3,5-Bis(trifluoromethyl)benzyloxy]adenosine, perchloric acid salt] returned an MCC greater than 320 µg/mL. Further, in the data set with vaccinia virus, the IC50 is 1.03 µg/mL; the “TI (therapeutic index, MTC/ID50)” value was 311 and 314.

For the compound `N=c1c2ncn([C@@H]3O[C@H](CO)[C@@H](O)[C@H]3O)c2ncn1OCc1ccc(C(F)(F)F)cc1C(F)(F)F.[O-][Cl+3]([O-])([O-])O` [Compound 2n, 1-[2,4-Bis(trifluoromethyl)benzyloxy]adenosine, perchloric acid salt], in data set [1], the MCC is greater than 320 µg/mL. Moreover, in the data set on vaccinia virus, the IC50 worked out at 1.45 µg/mL; the “TI (therapeutic index, MTC/ID50)” value is 221 and 181.

As for `N=c1c2ncn([C@@H]3O[C@H](CO)[C@@H](O)[C@H]3O)c2ncn1OCc1ccccc1Cl.[O-][Cl+3]([O-])([O-])O` [Compound 2o, 1-(2-Chlorobenzyloxy)adenosine, perchloric acid salt], in data set [1], the MCC is greater than 320 µg/mL. In the data set on vaccinia virus, the IC50 was found to be 1.01 µg/mL; the “TI (therapeutic index, MTC/ID50)” value was 318 and 251.

`N=c1c2ncn([C@@H]3O[C@H](CO)[C@@H](O)[C@H]3O)c2ncn1OCc1cccc(Cl)c1.[O-][Cl+3]([O-])([O-])O` [Compound 2p, 1-(3-Chlorobenzyloxy)adenosine, perchloric acid salt] gave an MCC in data set [1] greater than 320 µg/mL. In addition, in the data set on vaccinia virus, the IC50 is 1.08 µg/mL; the “TI (therapeutic index, MTC/ID50)” value is 295 and 193.

In data set [1], `N=c1c2ncn([C@@H]3O[C@H](CO)[C@@H](O)[C@H]3O)c2ncn1OCc1ccccc1[N+](=O)[O-].[O-][Cl+3]([O-])([O-])O` [Compound 2q, 1-(2-Nitrobenzyloxy)adenosine, perchloric acid salt] showed an MCC greater than 320 µg/mL. Also, in the data set on vaccinia virus, the IC50 was 1.03 µg/mL; the “TI (therapeutic index, MTC/ID50)” value was 310 and 181.

`N=c1c2ncn([C@@H]3O[C@H](CO)[C@@H](O)[C@H]3O)c2ncn1OCc1cccc([N+](=O)[O-])c1.[O-][Cl+3]([O-])([O-])O` [Compound 2r, 1-(3-Nitrobenzyloxy)adenosine, perchloric acid salt]: the MCC in data set [1] was greater than 320 µg/mL. In the data set with vaccinia virus, the IC50 stood at 10 µg/mL; the “TI (therapeutic index, MTC/ID50)” value was 32 and 30.

Compound `N=c1c2ncn([C@@H]3O[C@H](CO)[C@@H](O)[C@H]3O)c2ncn1OCc1ccc([N+](=O)[O-])cc1.[O-][Cl+3]([O-])([O-])O` [Compound 2s, 1-(4-Nitrobenzyloxy)adenosine, perchloric acid salt] gave an MCC in data set [1] greater than 320 µg/mL. In the data set on vaccinia virus, the IC50 came out at 2.34 µg/mL; the “TI (therapeutic index, MTC/ID50)” value was 137 and 89; the “Virus Rating (VR)” value is on record as greater than 1.7.

For `COc1ccc([N+](=O)[O-])cc1COn1cnc2c(ncn2[C@@H]2O[C@H](CO)[C@@H](O)[C@H]2O)c1=N.[O-][Cl+3]([O-])([O-])O` [Compound 2t, 1-(2-Methoxy-5-nitrobenzyloxy)adenosine, perchloric acid salt], the MCC in data set [1] was greater than 320 µg/mL. In addition, in the data set on vaccinia virus, the IC50 was found to be 2.01 µg/mL; the “TI (therapeutic index, MTC/ID50)” value was 160 and 87.

In data set [1], `COC(=O)c1cccc(COn2cnc3c(ncn3[C@@H]3O[C@H](CO)[C@@H](O)[C@H]3O)c2=N)c1.[O-][Cl+3]([O-])([O-])O` [Compound 2u, 1-(3-Methoxycarbonylbenzyloxy)adenosine, perchloric acid salt] had an MCC greater than 320 µg/mL. Further, in the data set with vaccinia virus, the IC50 came to 1.55 µg/mL; the “TI (therapeutic index, MTC/ID50)” value was 207 and 139.

Turning to `N#Cc1ccc(COn2cnc3c(ncn3[C@@H]3O[C@H](CO)[C@@H](O)[C@H]3O)c2=N)cc1.[O-][Cl+3]([O-])([O-])O` [Compound 2v, 1-(4-Cyanobenzyloxy)adenosine, perchloric acid salt], in data set [1], the MCC was greater than 320 µg/mL. Further, in the data set with vaccinia virus, the IC50 came out at 3.2 µg/mL; the “TI (therapeutic index, MTC/ID50)” value was 100 and 134.

Consider `N#Cc1cccc(COn2cnc3c(ncn3[C@@H]3O[C@H](CO)[C@@H](O)[C@H]3O)c2=N)c1.[O-][Cl+3]([O-])([O-])O` [Compound 2x, 1-(3-Cyanobenzyloxy)adenosine, perchloric acid salt], for which, in data set [1], the MCC is greater than 320 µg/mL. For the same compound, in the data set on vaccinia virus, the “TI (therapeutic index, MTC/ID50)” value is 182 and 134.

In turn, `COc1ccccc1COn1cnc2c(ncn2[C@@H]2O[C@H](CO)[C@@H](O)[C@H]2O)c1=N.[O-][Cl+3]([O-])([O-])O` [Compound 2y, 1-(2-methoxybenzyloxy)adenosine, perchloric acid salt] displayed an MCC in data set [1] of 320 µg/mL. For the same compound, in the data set with vaccinia virus, the IC50 came to 0.17 µg/mL; the “TI (therapeutic index, MTC/ID50)” value is 1935 and > 3020.

The compound `Cc1ccc(COn2cnc3c(ncn3[C@@H]3O[C@H](CO)[C@@H](O)[C@H]3O)c2=N)cc1C.[O-][Cl+3]([O-])([O-])O` [Compound 2z, 1-(3,4-Dimethylbenzyloxy)adenosine, perchloric acid salt] displayed an MCC in data set [1] of 320 µg/mL. Further, in the data set with vaccinia virus, the IC50 was 0.32 µg/mL; the “TI (therapeutic index, MTC/ID50)” value was > 1000 and > 1760.
